Measurements published in patent US11833256B2, “Selective RARγ ligand-loaded nanoparticles for manipulation of targeted bone growth” (University Of Maryland, Baltimore, priority 2017, dated 2023).

Key:
[1] = test system: ectopic bone formation in RARγ-null mice; test: Ectopic bone formation model in RARγ-null mice; type: in vivo, mouse; settings: N=8
Experimental: To verify specificity of this drug action, similar ectopic bone formation experiments were carried out with RARγ-null mice treated with vehicle or one of the antagonists (CD2665) (FIG. 13E).

[2] = test system: pSmad1/5/8-positive cells (canonical BMP signaling); test: pSmad1/5/8 immunohistochemistry of ectopic BMP-Matrigel masses; type: in vivo, mouse; settings: 4 mg/kg on day 1 and 3; samples day 5
Experimental: Tissue samples were fixed in 4% paraformaldehyde overnight at 4° C., decalcified in 10% EDTA (for calcified samples only), processed for paraffin embedding, and serially sectioned at 6 μm-thickness. Sections were stained with hematoxylin and eosin (HE) for general profiling or with Alcian blue at pH 1.0 and eosin counter-staining. For immunohistochemical analysis, antigen retrieval was performed with 0.1% pepsin in 0.02 N—HCl for 10 minutes, and sections were incubated with blocking solution (0.1 M NaPB, 1% BSA and 10% normal goat serum) for 1 hour and then with primary antibodies against phospho-Smad1/5/8 (Cell Signaling Technology™, 9511, 1:100) overnight at 4° C. The antibodies were visualized using rabbit specific HRP/DAB (ABC™) detection kit (Abcam™, ab64261). After detection, sections were counter-stained with 0.5% methyl green.
There are reciprocal antagonistic relationships between the retinoid and BMP signaling pathways in several biological systems. In addition, the suppression of chondrogenesis and heterotopic ossification by RARγ agonists involved inhibition of canonical BMP signaling. Thus, it became important to determine if and how BMP signaling was affected in the various experimental approaches here. […]
First, the distribution of phosphorylated Smad1/5/8-positive cells was determined within regenerating tibial bone defect areas in wild type and RARγ-null mice (FIG. 6A). […]

[3] = test system: BMP signaling (phosphorylated Smad1/5, p38, Erk1/2); test: Immunoblotting of phosphorylated Smad1/5, p38 and Erk1/2 in ATDC5 cells / primary chondrocytes; type: cell-based, mouse; settings: in the presence of 10 ng/mL rhBMP-2; each dose tested
Experimental: ATDC5 cells were grown until approximately 70% confluence in Dulbecco's modified Eagle's medium/Ham's nutrient mixture F-12 containing 5% fetal bovine serum (FBS). After serum deprivation (0.3% FBS) for 16 hours, cultures were treated with rhBMP-2 and/or retinoids for 60 minutes and then lysed in SDS-PAGE sample buffer. Cell lysates were denatured, separated onto 10% SDS-page gels and transferred to PVDF membranes (Millipore™, USA). Membranes were incubated overnight at 4° C. with antibodies against phospho-Smad1/5 (Cell Signaling Technology™, 9516, 1:1000), phospho-Smad1/5/8 (Cell Signaling Technology™, 9511, 1:1000), phospho-Erk1/2 (Cell Signaling Technology™, 4370, 1:500), or phospho-p38 (Cell Signaling Technology™, 4511, 1:500), followed by incubation with horseradish peroxidase (HRP)-conjugated secondary antibody (Cell Signaling Technology™, 7074, 1:2000). HRP activity was detected using a SuperSignal™ West Dura Extended Duration Substrate (Thermo Scientific™, USA). Membranes were re-blotted with antibodies against GAPDH (Santa Cruz Biotechnology™, sc-32233, 1:1000) for loading normalization.
RARγ was examined for whether it has cell-autonomous roles on BMP signaling in chondrocytes. […] Levels of phosphorylated Smad1/5, p38 and Erk1/2 were analyzed by immunoblotting. […]

[4] = test system: canonical BMP signaling reporter Id1-Luc; test: Id1-luc reporter assay in primary chondrocytes; type: cell-based, mouse
Experimental: Primary mouse epiphyseal chondrocytes were isolated from neonatal C57BL/6J mice according to known methods (Yasuhara et al., Lab. Invest. 91(12):1739-1752, 2011) and were plated on 48- or 96-well plates and serum-starved overnight. Cultures were co-transfected with canonical BMP signaling reporter Id1-Luc or retinoic acid response element (RARE)-Luc plasmids and phRG-TK (Promega™) using Lipofectamine LTX™ and Plus™ reagent (Invitrogen™) according to the manufacturer's protocol. Twenty four hours later, cells were treated with rhBMP-2 and/or retinoid and incubated for an additional 24 hours. Cells then were harvested and subjected to dual luciferase assay (Promega™). Firefly luciferase activity was normalized to renilla luciferase activity generated by phRG-TK.
Enhancement of BMP-Smad signaling by RARγ antagonists was confirmed by Id1-luc reporter assays. Cells were treated with the indicated doses of CD2665 or MM11253 in the absence or presence of 10 ng/mL rhBMP-2.

[5] = Hydrophobicity of acetaminophen-capped prodrug derivative versus parent; type: physicochemical; settings: acetaminophen-capped derivative vs parent retinoid
Text: In order to produce an in situ activatable, reversibly hydrophobized prodrug derivatives of a RARγ agonist, a pro-drug can be delivered in a nanoparticle formulation. […] However, the ionizable carboxylic group promotes the partitioning of the compound from the particle to the surrounding aqueous medium. […] The compound would be activatable upon release can increase the stability of the particle-cargo association and help achieve a more lasting and highly localized therapeutic effect. Such constructs are in essence mutual prodrugs or co-drugs, as they regenerate in one step the retinoid compound and acetaminophen, a biologically active “helper” agent, which can play an important supporting role in therapy.

more hydrophobic derivative if modified with acetaminophen [5] [fold] | SMILES | ectopic bone formation in RARγ-null mice, drug vs vehicle [1] | pSmad1/5/8-positive cells in ectopic BMP-Matrigel masses [2] | pSmad1/5/8 levels (immunoblot) [3] | Id1-luc reporter activity ([4]; absence of exogenous rhBMP-2) | Id1-luc reporter activity ([4]; presence of 10 ng/mL rhBMP-2)
– | COCCOCOc1cc2ccc(-c3ccc(C(=O)O)cc3)cc2cc1C12CC3CC(CC(C3)C1)C2 [CD2665] | No significant differences in bone formation | more numerous and obvious | significantly enhanced | slightly increased | significantly enhanced
5 | CC1(C)CCC(C)(C)c2cc(C3(c4ccc5cc(C(=O)O)ccc5c4)SCCS3)ccc21 [MM11253] | – | – | significantly enhanced | slightly increased | significantly enhanced
